Results: PMC6030096, “Synergy of Physico-chemical and Biological Experiments for Developing a Cyclooxygenase-2 Inhibitor” (Scientific Reports, 2018)
Like-named read-outs stand apart in the source and are kept apart here.

Biological target: T1, 5-LOX (Soybean lipoxygenase) (Glycine max, UniProt P08170)
T1 construct: purchased Cayman Chemical Co. 760700
T1 sequence (P08170 1-839): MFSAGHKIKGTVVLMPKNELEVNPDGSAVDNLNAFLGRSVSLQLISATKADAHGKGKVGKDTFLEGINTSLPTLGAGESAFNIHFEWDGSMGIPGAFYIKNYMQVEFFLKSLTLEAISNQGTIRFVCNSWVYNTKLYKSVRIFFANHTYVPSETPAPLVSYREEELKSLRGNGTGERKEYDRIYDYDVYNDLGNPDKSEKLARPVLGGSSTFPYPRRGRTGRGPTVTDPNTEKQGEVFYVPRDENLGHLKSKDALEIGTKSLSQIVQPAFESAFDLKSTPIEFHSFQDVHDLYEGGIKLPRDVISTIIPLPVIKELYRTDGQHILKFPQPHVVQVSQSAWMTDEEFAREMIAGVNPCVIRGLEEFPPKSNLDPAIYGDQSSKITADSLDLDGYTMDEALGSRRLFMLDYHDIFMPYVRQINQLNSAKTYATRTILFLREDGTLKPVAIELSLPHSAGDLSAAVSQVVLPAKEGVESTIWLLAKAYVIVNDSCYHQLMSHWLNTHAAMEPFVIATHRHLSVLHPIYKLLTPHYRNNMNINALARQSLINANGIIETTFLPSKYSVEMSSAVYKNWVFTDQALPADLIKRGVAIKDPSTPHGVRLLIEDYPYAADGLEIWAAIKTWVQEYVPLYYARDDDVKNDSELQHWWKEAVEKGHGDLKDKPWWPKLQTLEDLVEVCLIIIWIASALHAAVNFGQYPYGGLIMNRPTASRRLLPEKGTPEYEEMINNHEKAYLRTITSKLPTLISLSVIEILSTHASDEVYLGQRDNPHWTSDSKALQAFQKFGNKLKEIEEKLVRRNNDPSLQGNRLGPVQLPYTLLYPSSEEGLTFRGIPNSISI
Test: Lipoxygenase inhibitory activity assay
Assay type: biochemical
Description: 10 µL of the compound of each concentration was mixed with 90 µL 5-LOX (Soybean lipoxygenase in assay buffer) in the specified wells of the 96-well plate. Two wells containing assay buffer and AA acted as blanks whereas four wells, each carrying enzyme and AA, were positive controls. 10 µL AA was added to each test well and the plate was shaken for 5 min. Chromogen (100 µL) was added to each well and the plate was again shaken for 5 min. The absorbance of each well at 490 nm was recorded on microplate scanning spectrophotometer. As per the protocol given with the assay kit, the 5-LOX inhibitory activity for each compound at each concentration was determined using the mean of the two values (duplicate experiments) with deviation <5%.

[1] = soybean lipoxygenase, duplicate, read-out: IC50 5-LOX

SMILES	IC50 [1] [nM]	IC50 [nM]
O=C1Nc2ccccc2C1=Cc1cn(C[C@H](O)Cn2c3ccccc3c(=O)c3ccccc32)c2ccccc12 [(S)-3c]	500 ± 28	–
O=C1NC(=O)C(=Cc2cn(CCCn3c4ccccc4c(=O)c4ccccc43)c3ccccc23)C(=O)N1 [Compound 4a]	–	200 ± 10
O=C1Nc2ccccc2C1=Cc1cn(CCCn2c3ccccc3c(=O)c3ccccc32)c2ccccc12 [Compound 4c]	100 ± 80	–
